Each block holds one compound with its values, some of them ahead of it.
How the values were obtained:
Assay type in all cases: functional, cell-based
MDA-MB-231 [1] = assay: Cytotoxicity against human MDA-MB-231 cells assessed as reduction in cell growth incubated for 48 hrs by MTT assay; conditions: MDA-MB-231, 48 h
HuCC-A1 = assay: Cytotoxicity against human HuCC-A1 cells assessed as reduction in cell growth incubated for 3 days by micro-titer plate reader analysis; conditions: HuCC-A1, 72 h
HeLa [2] = assay: Cytotoxicity against human HeLa cells assessed as reduction in cell growth incubated for 48 hrs by MTT assay
KB = assay: Cytotoxicity against human KB cells assessed as reduction in cell growth incubated for 3 days by micro-titer plate reader analysis; conditions: 72 h
HepG2 [3] = assay: Antiproliferative activity against human HepG2 cells assessed as reduction in cell viability incubated for 24 hrs ny MTT assay; conditions: HepG2, 24 h
HeLa [4] = assay: Antiproliferative activity against human HeLa cells assessed as reduction in cell viability incubated for 24 hrs by MTT assay
MDA-MB-231 [5] = assay: Cytotoxicity against human MDA-MB-231 cells
CCRF-CEM = assay: Cytotoxicity against human CCRF-CEM cells
U-937 = assay: Cytotoxicity against human U-937 cells
SH-SY5Y = assay: Cytotoxicity against human SH-SY5Y cells assessed as reduction in cell viability incubated for 24 hrs by MTT assay
HeLa [6] = assay: Antiproliferative activity against human HeLa cells assessed as reduction in cell growth after 48 hrs by MTT assay
Ca-Ski [7] = assay: Antiproliferative activity against human Ca-Ski cells assessed as reduction in cell growth after 48 hrs by MTT assay
HepG2 [8] = assay: Cytotoxicity against human HepG2 cells assessed as reduction in cell viability incubated for 24 hrs by MTT assay; conditions: HepG2, 24 h
HeLa [9] = assay: Cytotoxicity against human HeLa cells
Ca-Ski [10] = assay: Cytotoxicity against human Ca-Ski cells
T98G = assay: Antiproliferative activity against human T98G cells assessed as inhibition of cell growth incubated for 72 hrs by celltiter-glo assay
DU-145 = assay: Cytotoxicity against human DU-145 cells
BT-474 = assay: Cytotoxicity against human BT-474 cells

SMILES: C[C@@H]1CC[C@@]2(OC1)O[C@H]1C[C@H]3[C@@H]4CC=C5C[C@@H](O[C@@H]6O[C@H](CO)[C@@H](O[C@@H]7O[C@H](CO)[C@@H](O)[C@H](O)[C@H]7O)[C@H](O)[C@H]6O[C@@H]6O[C@@H](C)[C@H](O)[C@@H](O)[C@H]6O)CC[C@]5(C)[C@H]4CC[C@]3(C)[C@H]1[C@@H]2C [DELTONIN]
IC50 (MDA-MB-231 [1]): 1.1 µM | IC50 (HuCC-A1): 3.4 µM | IC50 (HeLa [2]): 0.9 µM | IC50 (KB): 1.2 µM

IC50 (HepG2 [3]): 10.9 µM | IC50 (HeLa [4]): 17.9 µM
SMILES: Cc1ccc2c(c1)C(=O)C(Cl)=C(OC[C@H](C)CC[C@H]1O[C@H]3C[C@H]4[C@@H]5CC=C6C[C@@H](O[Si](C)(C)C(C)(C)C)CC[C@]6(C)[C@H]5CC[C@]4(C)[C@H]3[C@@H]1C)C2=O

SMILES: C[C@@H]1CC[C@@]2(OC1)O[C@H]1C[C@H]3[C@@H]4CC=C5C[C@@H](O[C@@H]6O[C@H](CO)[C@@H](O[C@@H]7O[C@H](CO)[C@@H](O[C@@H]8O[C@@H](C)[C@H](O)[C@@H](O)[C@H]8O)[C@H](O)[C@H]7O)[C@H](O)[C@H]6O[C@@H]6O[C@@H](C)[C@H](O)[C@@H](O)[C@H]6O)CC[C@]5(C)[C@H]4CC[C@]3(C)[C@H]1[C@@H]2C
IC50 (MDA-MB-231 [1]): 0.9 µM | IC50 (HuCC-A1): 2.6 µM | IC50 (HeLa [2]): 0.7 µM | IC50 (KB): 0.9 µM

IC50 (HepG2 [3]): 19.7 µM
SMILES: C[C@H](CC[C@H]1O[C@H]2C[C@H]3[C@@H]4CC=C5C[C@@H](O[Si](C)(C)C(C)(C)C)CC[C@]5(C)[C@H]4CC[C@]3(C)[C@H]2[C@@H]1C)COC1=C(Cl)C(=O)c2ncccc2C1=O

IC50 (HepG2 [3]): 13.5 µM
SMILES: CC(=O)O[C@H]1CC[C@@]2(C)C(=CC[C@H]3[C@@H]4C[C@@H]5O[C@H](CC[C@@H](C)COC6=C(Cl)C(=O)c7ccccc7C6=O)[C@@H](C)[C@@H]5[C@@]4(C)CC[C@@H]32)C1

SMILES: COc1cc(-c2cn(C3C[C@H]4[C@@H]5C[C@@H]6O[C@]7(CC[C@@H](C)CO7)[C@@H](C)[C@@H]6[C@@]5(C)CC[C@@H]4[C@@]4(C)CC[C@H](O)CC34O)nn2)cc(OC)c1OC (some centres undefined)
IC50 (MDA-MB-231 [5]): 16.1 µM | IC50 (CCRF-CEM): 6.26 µM | IC50 (U-937): 5.45 µM

SMILES: CC[C@H](C)[C@H](NC(=O)OC(C)(C)C)C(=O)O[C@H]1CC[C@@]2(C)C(=CC[C@H]3[C@@H]4C[C@@H]5O[C@]6(CC[C@@H](C)CO6)[C@@H](C)[C@@H]5[C@@]4(C)CC[C@@H]32)C1
IC50 (SH-SY5Y): 18.5 µM

SMILES: C[C@@H]1CC[C@@]2(OC1)O[C@H]1C[C@H]3[C@@H]4CC=C5C[C@@H](OC(=O)CN(C)C(=O)OC(C)(C)C)CC[C@]5(C)[C@H]4CC[C@]3(C)[C@H]1[C@@H]2C
IC50 (SH-SY5Y): 15.2 µM

IC50 (HepG2 [3]): 1.24 µM | IC50 (HeLa [4]): 14.1 µM
SMILES: C[C@H](CC[C@H]1O[C@H]2C[C@H]3[C@@H]4CC=C5C[C@@H](O)CC[C@]5(C)[C@H]4CC[C@]3(C)[C@H]2[C@@H]1C)COC1=C(Cl)C(=O)c2ccccc2C1=O

SMILES: C[C@@H]1CC[C@@]2(OC1)O[C@H]1C[C@H]3[C@@H]4CC(n5cc(-c6ccccn6)nn5)C5(O)C[C@@H](O)CC[C@]5(C)[C@H]4CC[C@]3(C)[C@H]1[C@@H]2C (some centres undefined)
IC50 (U-937): 15.2 µM

IC50 (HeLa [6]): 45.1 µM
SMILES: C[C@@H]1CC[C@@]2(OC1)O[C@H]1C[C@H]3[C@@H]4CC=C5C[C@@H](O[C@@H]6O[C@H](CO)[C@@H](O[C@@H]7O[C@@H](C)[C@H](O)[C@@H](O)[C@H]7O)[C@H](O)[C@H]6O)CC[C@]5(C)[C@H]4CC[C@]3(C)[C@H]1[C@@H]2C
IC50 (Ca-Ski [7]): 80 µM

SMILES: CC(C)C[C@H](NC(=O)OC(C)(C)C)C(=O)O[C@H]1CC[C@@]2(C)C(=CC[C@H]3[C@@H]4C[C@@H]5O[C@]6(CC[C@@H](C)CO6)[C@@H](C)[C@@H]5[C@@]4(C)CC[C@@H]32)C1
IC50 (SH-SY5Y): 9.5 µM

SMILES: CCCC(N)C(=O)O[C@H]1CC[C@@]2(C)C(=CC[C@H]3[C@@H]4C[C@@H]5O[C@]6(CC[C@@H](C)CO6)[C@@H](C)[C@@H]5[C@@]4(C)CC[C@@H]32)C1 (some centres undefined)
IC50 (SH-SY5Y): 6.9 µM

SMILES: C[C@@H]1CC[C@@]2(OC1)O[C@H]1C[C@H]3[C@@H]4CC=C5C[C@@H](O[C@@H]6O[C@H](CO)[C@@H](O[C@@H]7O[C@@H](C)[C@H](O[C@@H]8O[C@@H](C)[C@H](O)[C@@H](O)[C@H]8O)[C@@H](O)[C@H]7O)[C@H](O)[C@H]6O[C@@H]6O[C@@H](C)[C@H](O)[C@@H](O)[C@H]6O)CC[C@]5(C)[C@H]4CC[C@]3(C)[C@H]1[C@@H]2C [PENNOGENIN RAHAMNOSYL CHACOTRIOSIDE]
IC50 (MDA-MB-231 [1]): 3.1 µM | IC50 (HuCC-A1): 3 µM | IC50 (HepG2 [8]): 6.33 µM | IC50 (HeLa [2]): 3 µM | IC50 (KB): 6.2 µM

SMILES: C[C@@H]1CC[C@@]2(OC1)O[C@H]1C[C@H]3[C@@H]4C/C(=N\O)C5=C/C(=N/O)CC[C@]5(C)[C@H]4CC[C@]3(C)[C@H]1[C@@H]2C
IC50 (HeLa [9]): 19 µM | IC50 (Ca-Ski [10]): 22 µM

SMILES: C[C@@H]1CC[C@@]2(OC1)O[C@H]1C[C@H]3[C@@H]4CC=C5C[C@@H](O[C@@H]6O[C@H](CO)[C@@H](O[C@@H]7O[C@@H](CO)[C@H](O)[C@H]7O)[C@H](O)[C@H]6O[C@@H]6O[C@@H](C)[C@H](O)[C@@H](O)[C@H]6O)CC[C@]5(C)[C@H]4CC[C@]3(C)[C@H]1[C@@H]2C
IC50 (HepG2 [8]): 12.2 µM

SMILES: C[C@@H]1CC[C@@]2(OC1)O[C@H]1C[C@H]3[C@@H]4CC=C5C[C@@H](O[C@@H]6O[C@H](CO)[C@@H](O[C@@H]7O[C@@H](C)[C@H](O[C@@H]8O[C@@H](C)[C@H](O[C@@H]9O[C@@H](C)[C@H](O[C@@H]%10O[C@@H](C)[C@H](O)[C@@H](O)[C@H]%10O)[C@@H](O)[C@H]9O)[C@@H](O)[C@H]8O)[C@@H](O)[C@H]7O)[C@H](O)[C@H]6O[C@@H]6O[C@@H](C)[C@H](O)[C@@H](O)[C@H]6O)CC[C@]5(C)[C@H]4CC[C@]3(C)[C@H]1[C@@H]2C
IC50 (HepG2 [8]): 13.4 µM

SMILES: C[C@@H]1CC[C@@]2(OC1)O[C@H]1C[C@H]3[C@@H]4CC=C5C[C@@H](O[C@@H]6O[C@H](CO)[C@@H](O[C@@H]7O[C@@H](C)[C@H](O)[C@@H](O)[C@H]7O)[C@H](O)[C@H]6O[C@@H]6O[C@@H](C)[C@H](O)[C@@H](O)[C@H]6O)CC[C@]5(C)[C@H]4CC[C@]3(C)[C@H]1[C@@H]2C [DIOSCIN]
IC50 (MDA-MB-231 [1]): 1.7 µM | IC50 (HuCC-A1): 8.4 µM | IC50 (HepG2 [8]): 3.09 µM | IC50 (HeLa [2]): 3.6 µM | IC50 (HeLa [6]): 2 µM | IC50 (Ca-Ski [7]): 2 µM | IC50 (KB): 6.2 µM

SMILES: C[C@@H]1CC[C@@]2(OC1)O[C@H]1C[C@H]3[C@@H]4CC=C5C[C@@H](OC(=O)[C@@H]6CCCN6)CC[C@]5(C)[C@H]4CC[C@]3(C)[C@H]1[C@@H]2C
IC50 (SH-SY5Y): 7.2 µM

SMILES: C[C@@H]1CC[C@@]2(OC1)O[C@H]1C[C@H]3[C@@H]4CC(n5cc(-c6ccc(F)cc6)nn5)C5(O)C[C@@H](O)CC[C@]5(C)[C@H]4CC[C@]3(C)[C@H]1[C@@H]2C (some centres undefined)
IC50 (T98G): 8.87 µM | IC50 (DU-145): 10.1 µM | IC50 (MDA-MB-231 [5]): 7.08 µM | IC50 (CCRF-CEM): 5.44 µM | IC50 (U-937): 7.07 µM | IC50 (BT-474): 3.85 µM

SMILES: COc1cccc(COc2ccc(-c3cn(C4C[C@H]5[C@@H]6C[C@@H]7O[C@]8(CC[C@@H](C)CO8)[C@@H](C)[C@@H]7[C@@]6(C)CC[C@@H]5[C@@]5(C)CC[C@H](O)CC45O)nn3)cc2)c1 (some centres undefined)
IC50 (T98G): 7.51 µM | IC50 (DU-145): 10.5 µM | IC50 (CCRF-CEM): 5.73 µM

IC50 (HepG2 [3]): 5.81 µM | IC50 (HeLa [4]): 17.4 µM
SMILES: C[C@H](CC[C@H]1O[C@H]2C[C@H]3[C@@H]4CC=C5C[C@@H](O[Si](C)(C)C(C)(C)C)CC[C@]5(C)[C@H]4CC[C@]3(C)[C@H]2[C@@H]1C)COC1=C(Cl)C(=O)c2ccccc2C1=O

IC50 (HeLa [6]): 31.4 µM
SMILES: C[C@@H]1CC[C@@]2(OC1)O[C@H]1C[C@H]3[C@@H]4CC=C5C[C@@H](O)CC[C@]5(C)[C@H]4CC[C@]3(C)[C@H]1[C@@H]2C [DISOGENIN]
IC50 (Ca-Ski [7]): 80 µM

SMILES: C[C@@H]1CC[C@@]2(OC1)O[C@H]1C[C@H]3[C@@H]4CC=C5C[C@@H](OC(=O)[C@@H](N)Cc6ccccc6)CC[C@]5(C)[C@H]4CC[C@]3(C)[C@H]1[C@@H]2C
IC50 (SH-SY5Y): 11.2 µM

SMILES: C[C@@H]1CC[C@@]2(OC1)O[C@H]1C[C@H]3[C@@H]4CC=C5C[C@@H](O[C@@H]6O[C@H](CO)[C@@H](O)[C@H](O)[C@H]6O[C@@H]6O[C@@H](C)[C@H](O)[C@@H](O)[C@H]6O)CC[C@]5(C)[C@H]4CC[C@]3(C)[C@H]1[C@@H]2C [OPHIOPOGONIN C]
IC50 (MDA-MB-231 [1]): 3.5 µM | IC50 (HuCC-A1): 5.8 µM | IC50 (HepG2 [8]): 2.92 µM | IC50 (HeLa [2]): 3.7 µM | IC50 (KB): 4.2 µM

IC50 (HeLa [6]): 39.1 µM
SMILES: C[C@@H]1CC[C@@]2(OC1)O[C@H]1C[C@H]3[C@@H]4CC=C5C[C@@H](O[C@@H]6O[C@H](CO)[C@@H](O)[C@H](O)[C@H]6O)CC[C@]5(C)[C@H]4CC[C@]3(C)[C@H]1[C@@H]2C [DISOGLUSIDE]
IC50 (Ca-Ski [7]): 41 µM

SMILES: CC(=O)O[C@@H]1C=C2CC[C@H]3[C@@H]4C[C@@H]5O[C@@]6(OC[C@H](C)CC6/C(C)=N\O)[C@@H](C)[C@@H]5[C@@]4(C)CC[C@@H]3[C@@]2(C)CC1 (some centres undefined)
IC50 (HeLa [9]): 5.6 µM | IC50 (Ca-Ski [10]): 5.4 µM
